Assay results reported in ChEMBL document CHEMBL1201861, “Genomics of Drug Sensitity in Cancer screening data, Wellcome Trust Sanger Institute”.

Columns and labels:
IGROV-1 = experiment: cells; assay type: functional, cell-based, Homo sapiens; conditions: Homo sapiens, IGROV-1;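 further: reduction of IGROV-1 cell growth, read out with a viability assay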
Description: SANGER: Inhibition of human IGROV-1 cell growth in a cell viability assay.

T84 = experiment: cells; assay type: functional, cell-based, Homo sapiens; conditions: Homo sapiens, T84;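 further: growth inhibition measured with a cell viability readout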
Description: SANGER: Inhibition of human T84 cell growth in a cell viability assay.

U2OS = experiment: cells; assay type: functional, cell-based, Homo sapiens, U-2-OS; conditions: Homo sapiens, U2OS;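 further: growth inhibition of human U-2-OS cells, determined with a cell viability assay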
Description: SANGER: Inhibition of human U-2-OS cell growth in a cell viability assay.

COLO-792 = experiment: cells; assay type: functional, cell-based, Homo sapiens; conditions: Homo sapiens, COLO-792
Description: SANGER: Inhibition of human COLO-792 cell growth in a cell viability assay.

HCC1599 = experiment: cells; assay type: functional, cell-based, Homo sapiens; conditions: Homo sapiens, HCC1599;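 further: growth inhibition of HCC1599 cells, read out in a cell viability assay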
Description: SANGER: Inhibition of human HCC1599 cell growth in a cell viability assay.

LC4-1 = experiment: cells; assay type: functional, cell-based, Homo sapiens; conditions: Homo sapiens, LC4-1;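 further: growth inhibition of LC4-1 cells, read out with a cell viability assay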
Description: SANGER: Inhibition of human LC4-1 cell growth in a cell viability assay.

MRK-nu-1 = experiment: cells; assay type: functional, cell-based, Homo sapiens; conditions: Homo sapiens, MRK-nu-1;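 further: cell viability assay measuring growth suppression of human MRK-nu-1 cells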
Description: SANGER: Inhibition of human MRK-nu-1 cell growth in a cell viability assay.

ChaGo-K-1 = experiment: cells; assay type: functional, cell-based, Homo sapiens; conditions: Homo sapiens, ChaGo-K-1;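 further: growth inhibition of ChaGo-K-1 cells, read out with a cell viability assay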
Description: SANGER: Inhibition of human ChaGo-K-1 cell growth in a cell viability assay.

NCI-H1703 = experiment: cells; assay type: functional, cell-based, Homo sapiens; conditions: Homo sapiens, NCI-H1703;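 further: growth inhibition of NCI-H1703 cells, read out via a cell viability assay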
Description: SANGER: Inhibition of human NCI-H1703 cell growth in a cell viability assay.

KMS-12-PE = experiment: cells; assay type: functional, cell-based, Homo sapiens; conditions: Homo sapiens, KMS-12-PE;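 further: growth inhibition of human KMS-12-PE cells, measured with a cell viability assay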
Description: SANGER: Inhibition of human KMS-12-PE cell growth in a cell viability assay.

PANC-03-27 = experiment: cells; assay type: functional, cell-based, Homo sapiens; conditions: Homo sapiens, PANC-03-27
Description: SANGER: Inhibition of human PANC-03-27 cell growth in a cell viability assay.

MONO-MAC-6 = experiment: cells; assay type: functional, cell-based, Homo sapiens; conditions: Homo sapiens, MONO-MAC-6;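 further: cell viability assay measuring growth inhibition of human MONO-MAC-6 cells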
Description: SANGER: Inhibition of human MONO-MAC-6 cell growth in a cell viability assay.

CHP-212 = experiment: cells; assay type: functional, cell-based, Homo sapiens; conditions: Homo sapiens, CHP-212
Description: SANGER: Inhibition of human CHP-212 cell growth in a cell viability assay.

NCI-H460 = experiment: cells; assay type: functional, cell-based, Homo sapiens; conditions: Homo sapiens, NCI-H460;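 further: cell viability assay scoring growth inhibition of human NCI-H460 cells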
Description: SANGER: Inhibition of human NCI-H460 cell growth in a cell viability assay.

IM-9 = experiment: SANGER: Inhibition of human IM-9 cell growth in a cell viability assay.; assay type: functional, cell-based; conditions: Homo sapiens, IM-9
SW837 = experiment: cells; assay type: functional, cell-based, Homo sapiens; conditions: Homo sapiens, SW837;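 further: growth inhibition of SW837 cells, determined with a cell viability assay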
Description: SANGER: Inhibition of human SW837 cell growth in a cell viability assay.

CAL-72 = experiment: cells; assay type: functional, cell-based, Homo sapiens; conditions: Homo sapiens, CAL-72;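 further: cell viability assay measuring inhibition of proliferation in the CAL-72 cell line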
Description: SANGER: Inhibition of human CAL-72 cell growth in a cell viability assay.

LCLC-97TM1 = experiment: cells; assay type: functional, cell-based, Homo sapiens; conditions: Homo sapiens, LCLC-97TM1;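 further: cell viability assay measuring growth inhibition of human LCLC-97TM1 cells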
Description: SANGER: Inhibition of human LCLC-97TM1 cell growth in a cell viability assay.

BHY = experiment: cells; assay type: functional, cell-based, Homo sapiens; conditions: Homo sapiens, BHY;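 further: cell growth inhibition read out by a viability assay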
Description: SANGER: Inhibition of human BHY cell growth in a cell viability assay.

HuP-T4 = experiment: cells; assay type: functional, cell-based, Homo sapiens; conditions: Homo sapiens, HuP-T4;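 further: cell viability assay measuring how much HuP-T4 cell growth is inhibited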
Description: SANGER: Inhibition of human HuP-T4 cell growth in a cell viability assay.

NCI-H522 = experiment: cells; assay type: functional, cell-based, Homo sapiens; conditions: Homo sapiens, NCI-H522;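 further: cell viability assay measuring growth inhibition of human NCI-H522 cells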
Description: SANGER: Inhibition of human NCI-H522 cell growth in a cell viability assay.

NCI-H1963 = experiment: cells; assay type: functional, cell-based, Homo sapiens; conditions: Homo sapiens, NCI-H1963;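 further: cell growth inhibition of the human line, determined with a cell viability assay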
Description: SANGER: Inhibition of human NCI-H1963 cell growth in a cell viability assay.

TALL-1 = experiment: cells; assay type: functional, cell-based, Homo sapiens; conditions: Homo sapiens, TALL-1;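 further: growth inhibition of cultured human TALL-1 cells, read out by a cell viability assay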
Description: SANGER: Inhibition of human TALL-1 cell growth in a cell viability assay.

HT55 = experiment: cells; assay type: functional, cell-based, Homo sapiens; conditions: Homo sapiens, HT55;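 further: cell viability readout measuring growth inhibition of human HT55 cells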
Description: SANGER: Inhibition of human HT55 cell growth in a cell viability assay.

SK-N-AS = experiment: cells; assay type: functional, cell-based, Homo sapiens; conditions: Homo sapiens, SK-N-AS;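 further: growth inhibition of human SK-N-AS cells, measured with a cell viability assay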
Description: SANGER: Inhibition of human SK-N-AS cell growth in a cell viability assay.

DG-75 = experiment: cells; assay type: functional, cell-based, Homo sapiens; conditions: Homo sapiens, DG-75;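 further: growth inhibition of DG-75 cells, read out with a cell viability assay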
Description: SANGER: Inhibition of human DG-75 cell growth in a cell viability assay.

LoVo = experiment: cells; assay type: functional, cell-based, Homo sapiens; conditions: Homo sapiens, LoVo;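 further: growth inhibition of human LoVo cells, read out with a cell viability assay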
Description: SANGER: Inhibition of human LoVo cell growth in a cell viability assay.

KYSE-520 cell line = experiment: cells; assay type: functional, cell-based, Homo sapiens; conditions: Homo sapiens, KYSE-520;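 further: growth inhibition of human KYSE-520 cells, read out with a viability assay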
Description: SANGER: Inhibition of human KYSE-520 cell growth in a cell viability assay.

Panc1005 = experiment: cells; assay type: functional, cell-based, Homo sapiens; conditions: Homo sapiens, Panc1005;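 further: growth inhibition of human PANC-10-05 cells, measured by a cell viability assay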
Description: SANGER: Inhibition of human PANC-10-05 cell growth in a cell viability assay.

BOKU = experiment: cells; assay type: functional, cell-based, Homo sapiens; conditions: Homo sapiens, BOKU;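 further: growth inhibition of the human BOKU cell line, read out by a cell viability assay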
Description: SANGER: Inhibition of human BOKU cell growth in a cell viability assay.

U-251 = experiment: cells; assay type: functional, cell-based, Homo sapiens; conditions: Homo sapiens, U-251;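 further: growth inhibition of human U-251 cells, read out through a cell viability assay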
Description: SANGER: Inhibition of human U251 cell growth in a cell viability assay.

BPH-1 = experiment: cells; assay type: functional, cell-based, Homo sapiens; conditions: Homo sapiens, BPH-1;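 further: cell viability assay measuring growth inhibition of human BPH-1 cells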
Description: SANGER: Inhibition of human BPH-1 cell growth in a cell viability assay.

NCI-H2196 = experiment: cells; assay type: functional, cell-based, Homo sapiens; conditions: Homo sapiens, NCI-H2196;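 further: cell viability assay used as the readout of growth inhibition in NCI-H2196 cells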
Description: SANGER: Inhibition of human NCI-H2196 cell growth in a cell viability assay.

HT-3 = experiment: cells; assay type: functional, cell-based, Homo sapiens; conditions: Homo sapiens, HT-3;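 further: growth inhibition measured with a cell viability readout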
Description: SANGER: Inhibition of human HT-3 cell growth in a cell viability assay.

G-361 = experiment: cells; assay type: functional, cell-based, Homo sapiens; conditions: Homo sapiens, G-361
COR-L279 = experiment: SANGER: Inhibition of human COR-L279 cell growth in a cell viability assay.; assay type: functional, cell-based; conditions: Homo sapiens, COR-L279
IST-SL2 = experiment: cells; assay type: functional, cell-based, Homo sapiens; conditions: Homo sapiens, IST-SL2;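 further: growth inhibition of human IST-SL2 cells, read out by a cell viability assay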
Description: SANGER: Inhibition of human IST-SL2 cell growth in a cell viability assay.

SK-MEL-24 = experiment: cells; assay type: functional, cell-based, Homo sapiens; conditions: Homo sapiens, SK-MEL-24;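 further: growth inhibition read out by a cell viability assay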
Description: SANGER: Inhibition of human SK-MEL-24 cell growth in a cell viability assay.

MCF7 = experiment: cells; assay type: functional, cell-based, Homo sapiens; conditions: Homo sapiens, MCF7;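 further: growth inhibition of human MCF7 cells, read out with a cell viability assay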
Description: SANGER: Inhibition of human MCF7 cell growth in a cell viability assay.

LP-1 = experiment: cells; assay type: functional, cell-based, Homo sapiens; conditions: Homo sapiens, LP-1;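 further: growth inhibition of human LP-1 cells, with the read-out taken from a cell viability assay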
Description: SANGER: Inhibition of human LP-1 cell growth in a cell viability assay.

NUGC-3 = experiment: cells; assay type: functional, cell-based, Homo sapiens; conditions: Homo sapiens, NUGC-3;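 further: growth inhibition of human NUGC-3 cells, read out with a cell viability assay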
Description: SANGER: Inhibition of human NUGC-3 cell growth in a cell viability assay.

CPC-N = experiment: cells; assay type: functional, cell-based, Homo sapiens; conditions: Homo sapiens, CPC-N;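 further: growth inhibition of CPC-N cells, with a cell viability assay as the readout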
Description: SANGER: Inhibition of human CPC-N cell growth in a cell viability assay.

EB2 = experiment: cells; assay type: functional, cell-based, Homo sapiens; conditions: Homo sapiens, EB2;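 further: growth inhibition of EB2 cells, read out with a cell viability assay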
Description: SANGER: Inhibition of human EB2 cell growth in a cell viability assay.

BT-20 = experiment: cells; assay type: functional, cell-based, Homo sapiens; conditions: Homo sapiens, BT-20;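 further: cell viability assay measuring suppression of growth in human BT-20 cells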
Description: SANGER: Inhibition of human BT-20 cell growth in a cell viability assay.

HT-29 = experiment: cells; assay type: functional, cell-based, Homo sapiens; conditions: Homo sapiens, HT-29;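 further: growth inhibition of human HT-29 cells, read out by a cell viability assay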
Description: SANGER: Inhibition of human HT-29 cell growth in a cell viability assay.

For `Nc1ccn([C@@H]2O[C@H](CO)[C@@H](O)C2(F)F)c(=O)n1` [GEMCITABINE], the IC50 (IGROV-1) was < 0.004 µM, the IC50 (T84) was 16 nM and the IC50 (U2OS) was > 1.02 µM. The IC50 (COLO-792) was > 1.02 µM, the IC50 (HCC1599) was 70.2 nM and the IC50 (LC4-1) was 74.7 nM. The IC50 (MRK-nu-1) was 2.57 nM, the IC50 (ChaGo-K-1) was 696 nM and the IC50 (NCI-H1703) was 31.8 nM. For the same molecule, the IC50 (KMS-12-PE) was > 1.02 µM, the IC50 (PANC-03-27) was 3.51 nM and the IC50 (MONO-MAC-6) was 24.8 nM. The IC50 (CHP-212) was 2.75 nM, the IC50 (NCI-H460) was 13.5 nM and the IC50 (IM-9) was 347 nM. The IC50 (SW837) was 27.6 nM, the IC50 (CAL-72) was > 1.02 µM and the IC50 (LCLC-97TM1) was < 0.004 µM. The IC50 (BHY) was 1.14 nM, the IC50 (HuP-T4) was 27.3 nM and the IC50 (NCI-H522) was 4.34 nM. The IC50 (NCI-H1963) was > 1.02 µM, the IC50 (TALL-1) was > 1.02 µM and the IC50 (HT55) was > 1.02 µM. For the same molecule, the IC50 (SK-N-AS) was > 1.02 µM, the IC50 (DG-75) was > 1.02 µM and the IC50 (LoVo) was 5.71 nM. It also gave an IC50 (KYSE-520 cell line) of 92.8 nM, an IC50 (Panc1005) of 15.4 nM and an IC50 (BOKU) of 254 nM. The IC50 (U-251) was 22.3 nM, the IC50 (BPH-1) was 20.3 nM and the IC50 (NCI-H2196) was > 1.02 µM. The IC50 (HT-3) was 201 nM, the IC50 (G-361) was 21.1 nM and the IC50 (COR-L279) was 53.9 nM. For the same molecule, the IC50 (IST-SL2) was < 0.004 µM, the IC50 (SK-MEL-24) was > 1.02 µM and the IC50 (MCF7) was < 0.004 µM. The IC50 (LP-1) was > 1.02 µM, the IC50 (NUGC-3) was 18.3 nM and the IC50 (CPC-N) was 329 nM. The IC50 (EB2) was 2.01 nM, the IC50 (BT-20) was 182 nM and the IC50 (HT-29) was < 0.004 µM.

With `C=C(c1ccc(C(=O)O)cc1)c1cc2c(cc1C)C(C)(C)CCC2(C)C` [BEXAROTENE] the IC50 (IGROV-1) was > 8 µM, the IC50 (T84) was > 8000 nM and the IC50 (U2OS) was > 8 µM. For the same molecule, the IC50 (COLO-792) was > 8 µM, the IC50 (HCC1599) was > 8000 nM and the IC50 (LC4-1) was > 8000 nM. For the same molecule, the IC50 (MRK-nu-1) was > 8000 nM, the IC50 (ChaGo-K-1) was > 8000 nM and the IC50 (NCI-H1703) was > 8000 nM. The IC50 (KMS-12-PE) was > 8 µM, the IC50 (PANC-03-27) was > 8000 nM and the IC50 (MONO-MAC-6) was > 8000 nM. For the same molecule, the IC50 (CHP-212) was > 8000 nM, the IC50 (NCI-H460) was > 8000 nM and the IC50 (IM-9) was > 8000 nM. The IC50 (SW837) was > 8000 nM, the IC50 (CAL-72) was > 8 µM and the IC50 (LCLC-97TM1) was > 8 µM. For the same molecule, the IC50 (BHY) was > 8000 nM, the IC50 (HuP-T4) was > 8000 nM and the IC50 (NCI-H522) was > 8000 nM. For the same molecule, the IC50 (NCI-H1963) was > 8 µM, the IC50 (TALL-1) was > 8 µM and the IC50 (HT55) was > 8 µM. For the same molecule, the IC50 (SK-N-AS) was > 8 µM, the IC50 (DG-75) was > 8 µM and the IC50 (LoVo) was 5920 nM. For the same molecule, the IC50 (KYSE-520 cell line) was > 8000 nM, the IC50 (Panc1005) was > 8000 nM and the IC50 (BOKU) was > 8000 nM. The IC50 (U-251) was > 8000 nM, the IC50 (BPH-1) was > 8000 nM and the IC50 (NCI-H2196) was > 8 µM. For the same molecule, the IC50 (HT-3) was > 8000 nM, the IC50 (G-361) was > 8000 nM and the IC50 (COR-L279) was > 8000 nM. For the same molecule, the IC50 (IST-SL2) was > 8 µM, the IC50 (SK-MEL-24) was > 8 µM and the IC50 (MCF7) was > 8 µM. For the same molecule, the IC50 (LP-1) was > 8 µM, the IC50 (NUGC-3) was > 8000 nM and the IC50 (CPC-N) was > 8000 nM. For the same molecule, the IC50 (EB2) was > 8000 nM, the IC50 (BT-20) was > 8000 nM and the IC50 (HT-29) was > 8 µM.
